These results are taken from patent US20230148214A1, “INDAZOLES AND AZAINDAZOLES AS LRRK2 INHIBITORS” (ESCAPE Bio, Inc., priority 2020, published 2023).

A value given as a limit tells only on which side of the number the result lay.

In test [1] the target is T1, LRRK2 G2019S (Homo sapiens, UniProt Q5S007, G2019S).
T1 construct: purchased Life Technologies PV4881
In words: LRRK2 Kinase Activity Assay (LanthaScreen TR-FRET), G2019S. As to conditions: recombinant G2019S-LRRK2, 25 μM ATP, 400 nM LRRKtide, 60 min; class symbols. The test is classed as biochemical. The essentials:
(§1)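 Recombinant wild-type or G2019S LRRK2 incubated with fluorescein-labeled LRRKtide (ERM-based) peptide, ATP and serially diluted compound for 60 min at room temperature.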

For test [2], the target named is T2, LRRK2 WT (Homo sapiens, UniProt Q5S007).
T2 construct: purchased Life Technologies PR8604B
T2 sequence (Q5S007 whole entry): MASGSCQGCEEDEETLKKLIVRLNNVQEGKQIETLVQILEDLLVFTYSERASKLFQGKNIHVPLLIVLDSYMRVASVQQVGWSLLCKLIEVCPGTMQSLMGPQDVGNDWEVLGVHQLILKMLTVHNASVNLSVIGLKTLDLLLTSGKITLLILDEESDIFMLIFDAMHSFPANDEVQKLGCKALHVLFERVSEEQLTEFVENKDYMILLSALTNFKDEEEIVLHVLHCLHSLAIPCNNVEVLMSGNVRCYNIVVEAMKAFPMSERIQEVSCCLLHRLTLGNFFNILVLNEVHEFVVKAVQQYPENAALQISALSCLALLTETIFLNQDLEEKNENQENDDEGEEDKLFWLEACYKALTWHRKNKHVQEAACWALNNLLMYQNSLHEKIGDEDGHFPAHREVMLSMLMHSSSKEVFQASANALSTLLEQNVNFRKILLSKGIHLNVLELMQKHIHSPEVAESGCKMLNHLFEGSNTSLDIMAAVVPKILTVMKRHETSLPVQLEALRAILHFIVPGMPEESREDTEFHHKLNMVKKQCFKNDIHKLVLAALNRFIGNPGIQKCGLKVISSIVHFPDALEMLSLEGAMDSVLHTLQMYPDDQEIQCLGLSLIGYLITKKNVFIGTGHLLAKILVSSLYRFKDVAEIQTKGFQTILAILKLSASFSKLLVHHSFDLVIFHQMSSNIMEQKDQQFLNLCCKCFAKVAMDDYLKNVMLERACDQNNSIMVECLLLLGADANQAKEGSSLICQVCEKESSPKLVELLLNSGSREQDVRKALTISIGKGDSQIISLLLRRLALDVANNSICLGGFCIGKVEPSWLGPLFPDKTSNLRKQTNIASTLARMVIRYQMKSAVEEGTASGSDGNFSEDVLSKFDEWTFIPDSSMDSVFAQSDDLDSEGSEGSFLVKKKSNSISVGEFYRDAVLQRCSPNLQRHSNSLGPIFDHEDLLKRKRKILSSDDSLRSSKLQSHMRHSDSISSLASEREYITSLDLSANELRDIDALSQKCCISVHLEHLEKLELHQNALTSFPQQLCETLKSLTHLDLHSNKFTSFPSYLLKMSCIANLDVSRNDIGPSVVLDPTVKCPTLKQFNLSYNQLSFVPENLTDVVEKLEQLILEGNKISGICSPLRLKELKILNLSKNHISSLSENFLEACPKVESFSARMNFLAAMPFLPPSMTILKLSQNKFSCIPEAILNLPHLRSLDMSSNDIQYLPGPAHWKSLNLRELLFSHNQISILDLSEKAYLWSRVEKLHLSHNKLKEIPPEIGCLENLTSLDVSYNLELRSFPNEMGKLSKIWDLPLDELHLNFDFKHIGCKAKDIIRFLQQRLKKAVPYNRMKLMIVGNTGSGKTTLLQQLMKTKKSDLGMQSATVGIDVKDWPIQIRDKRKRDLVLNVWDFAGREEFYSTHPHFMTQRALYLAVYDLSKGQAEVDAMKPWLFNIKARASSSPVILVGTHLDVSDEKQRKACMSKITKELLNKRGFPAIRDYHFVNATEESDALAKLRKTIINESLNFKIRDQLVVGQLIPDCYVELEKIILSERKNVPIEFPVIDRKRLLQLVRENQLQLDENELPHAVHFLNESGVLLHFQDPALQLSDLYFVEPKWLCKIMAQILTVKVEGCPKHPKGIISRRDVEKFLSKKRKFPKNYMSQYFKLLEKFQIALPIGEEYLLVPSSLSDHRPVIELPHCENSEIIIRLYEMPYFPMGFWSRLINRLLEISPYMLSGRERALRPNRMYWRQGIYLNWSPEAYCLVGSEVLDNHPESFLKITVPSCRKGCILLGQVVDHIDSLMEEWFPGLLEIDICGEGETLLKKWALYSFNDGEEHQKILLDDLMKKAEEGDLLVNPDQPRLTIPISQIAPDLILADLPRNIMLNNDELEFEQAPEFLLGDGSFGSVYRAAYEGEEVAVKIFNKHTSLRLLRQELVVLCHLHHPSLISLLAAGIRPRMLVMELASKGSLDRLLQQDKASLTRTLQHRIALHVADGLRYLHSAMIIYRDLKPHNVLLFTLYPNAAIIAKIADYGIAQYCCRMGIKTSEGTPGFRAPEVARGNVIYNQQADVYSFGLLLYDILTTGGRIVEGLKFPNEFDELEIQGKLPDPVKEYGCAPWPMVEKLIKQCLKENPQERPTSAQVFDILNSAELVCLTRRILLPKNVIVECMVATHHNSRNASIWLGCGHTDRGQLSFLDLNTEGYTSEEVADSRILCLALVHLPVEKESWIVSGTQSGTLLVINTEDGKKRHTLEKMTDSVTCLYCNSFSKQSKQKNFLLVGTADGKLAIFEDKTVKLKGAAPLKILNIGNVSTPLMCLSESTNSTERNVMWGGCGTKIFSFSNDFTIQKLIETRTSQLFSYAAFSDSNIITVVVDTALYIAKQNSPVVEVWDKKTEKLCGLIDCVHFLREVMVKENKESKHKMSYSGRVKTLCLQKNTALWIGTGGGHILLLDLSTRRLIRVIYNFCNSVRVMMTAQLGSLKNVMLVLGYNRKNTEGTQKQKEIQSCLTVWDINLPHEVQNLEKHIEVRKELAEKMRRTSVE
In words: LRRK2 Kinase Activity Assay (LanthaScreen TR-FRET), wild type. The test is classed as biochemical. As to conditions: recombinant wild type LRRK2, 25 μM ATP, 400 nM LRRKtide, 60 min; class symbols. A digest of the protocol:
as §1
In general terms: In TR-FRET formats the signal depends on donor and acceptor labels being close together.

T1 sequence (Q5S007 whole entry G2019S): as the sequence (Q5S007 whole entry) above, with G2019S counted along it

What is called IC50 is the concentration needed to halve the response being measured. With `CC1(C)C[C@H](Nc2ccc3[nH]nc(-c4cnco4)c3c2)c2ccc(C#N)cc21` (single isomer, unassigned) [Example 105, enantiomer 2, 3,3-Dimethyl-1-((3-(oxazol-5-yl)-1H-indazol-5-yl)amino)-2,3-dihydro-1H-indene-5-carbonitrile], the IC50 was less than 0.1 µM in test [1] and 0.1 to 1 µM in test [2].

Turning to `Cc1nc2c(cc1C#N)CCC[C@@H]2Nc1ccc2[nH]nc(-c3cnco3)c2c1` (single isomer, unassigned) [Example 106, enantiomer 1, 2-Methyl-8-((3-(oxazol-5-yl)-1H-indazol-5-yl)amino)-5,6,7,8-tetrahydroquinoline-3-carbonitrile], the IC50 is less than 0.1 µM in test [1] and 0.1 to 1 µM in test [2].

`Cc1c(C#N)cnc2c1CC[C@@H]2Oc1ccc2[nH]nc(-c3cnco3)c2c1` (single isomer, unassigned) [Example 107, enantiomer 1, 4-Methyl-7-((3-(oxazol-5-yl)-1H-indazol-5-yl)oxy)-6,7-dihydro-5H-cyclopenta[b]pyridine-3-carbonitrile]: the IC50 in test [1] and in test [2] was less than 0.1 µM throughout.

Consider `Cc1c(C#N)cnc2c1CC[C@@H]2Oc1ccc2[nH]nc(-c3cnco3)c2c1` (single isomer, unassigned) [Example 107, enantiomer 2, 4-Methyl-7-((3-(oxazol-5-yl)-1H-indazol-5-yl)oxy)-6,7-dihydro-5H-cyclopenta[b]pyridine-3-carbonitrile], for which the values for the IC50 in test [1] and in test [2] were less than 0.1 µM and 0.1 to 1 µM, respectively.

As to `Cc1c(C#N)cnc2c1CC[C@@H]2Nc1ccc2[nH]nc(-c3cnco3)c2c1` (single isomer, unassigned) [Example 108, enantiomer 1, 4-Methyl-7-((3-(oxazol-5-yl)-1H-indazol-5-yl)amino)-6,7-dihydro-5H-cyclopenta[b]pyridine-3-carbonitrile], the results for the IC50 in test [1] and in test [2] were less than 0.1 µM and 0.1 to 1 µM, respectively.

With `N#Cc1cnc2c(c1)CC[C@@H]2Nc1ccc2[nH]nc(-c3cnco3)c2c1` (single isomer, unassigned) [Example 109, enantiomer 1, 7-((3-(Oxazol-5-yl)-1H-indazol-5-yl)amino)-6,7-dihydro-5H-cyclopenta[b]pyridine-3-carbonitrile], the IC50 in test [1] and in test [2] was less than 0.1 µM throughout.

In the case of `N#Cc1cnc2c(c1)CC[C@@H]2Nc1ccc2[nH]nc(-c3cnco3)c2c1` (single isomer, unassigned) [Example 109, enantiomer 2, 7-((3-(Oxazol-5-yl)-1H-indazol-5-yl)amino)-6,7-dihydro-5H-cyclopenta[b]pyridine-3-carbonitrile], the results for the IC50 in test [1] and in test [2] were less than 0.1 µM and 0.1 to 1 µM, respectively.

In the case of `Cc1cc2c(cc1C#N)CCC[C@@H]2Nc1ccc2[nH]nc(-c3cnco3)c2c1` (single isomer, unassigned) [Example 110, enantiomer 1, 3-Methyl-5-((3-(oxazol-5-yl)-1H-indazol-5-yl)amino)-5,6,7,8-tetrahydronaphthalene-2-carbonitrile], the IC50 in test [1] and in test [2] was less than 0.1 µM throughout.

`Cc1cc2c(cc1C#N)CCC[C@@H]2Nc1ccc2[nH]nc(-c3cnco3)c2c1` (single isomer, unassigned) [Example 110, enantiomer 2, 3-Methyl-5-((3-(oxazol-5-yl)-1H-indazol-5-yl)amino)-5,6,7,8-tetrahydronaphthalene-2-carbonitrile]: the results for the concentration for half-maximal inhibition (IC50) in test [1] and in test [2] were less than 0.1 µM and 0.1 to 1 µM, respectively.

For the compound `CN(c1ccc2[nH]nc(-c3cnco3)c2c1)[C@H]1CCc2cc(C#N)ccc21` (single isomer, unassigned) [Example 111, enantiomer 1, 1-(Methyl(3-(oxazol-5-yl)-1H-indazol-5-yl)amino)-2,3-dihydro-1H-indene-5-carbonitrile], the IC50 in test [1] and in test [2] was less than 0.1 µM each time.

On to `CN(c1ccc2[nH]nc(-c3cnco3)c2c1)[C@H]1CCc2cc(C#N)ccc21` (single isomer, unassigned) [Example 111, enantiomer 2, 1-(Methyl(3-(oxazol-5-yl)-1H-indazol-5-yl)amino)-2,3-dihydro-1H-indene-5-carbonitrile], for which the results for the IC50 in test [1] and in test [2] were less than 0.1 µM and 0.1 to 1 µM, respectively.

With `N#Cc1cc2c(nc1Cl)[C@@H](Nc1ccc3[nH]nc(-c4cnco4)c3c1)CCC2` (single isomer, unassigned) [Example 112, enantiomer 1, 2-Chloro-8-((3-(oxazol-5-yl)-1H-indazol-5-yl)amino)-5,6,7,8-tetrahydroquinoline-3-carbonitrile], the concentration for half-maximal inhibition (IC50) in test [1] was less than 0.1 µM; in test [2], 0.1 to 1 µM.

For the compound `COc1c(C#N)ccc2c1CC[C@@H]2Nc1ccc2[nH]nc(-c3cnco3)c2c1` (single isomer, unassigned) [Example 113, enantiomer 1, 4-Methoxy-1-((3-(oxazol-5-yl)-1H-indazol-5-yl)amino)-2,3-dihydro-1H-indene-5-carbonitrile], the IC50 in test [1] and in test [2] was less than 0.1 µM throughout.

For `COc1cc2c(cc1C#N)CCC[C@@H]2Nc1ccc2[nH]nc(-c3cnoc3)c2c1` (single isomer, unassigned) [Example 114, enantiomer 1, 5-((3-(Isoxazol-4-yl)-1H-indazol-5-yl)amino)-3-methoxy-5,6,7,8-tetrahydronaphthalene-2-carbonitrile], the IC50 in test [1] and in test [2] was 0.1 to 1 µM each time.

For the compound `COc1cc2c(cc1C#N)CCC[C@@H]2Nc1ccc2[nH]nc(-c3cnoc3)c2c1` (single isomer, unassigned) [Example 114, enantiomer 2, 5-((3-(Isoxazol-4-yl)-1H-indazol-5-yl)amino)-3-methoxy-5,6,7,8-tetrahydronaphthalene-2-carbonitrile], the IC50 in test [1] and in test [2] was less than 0.1 µM each time.

With `CC1(C)CC[C@H](Nc2ccc3[nH]nc(-c4cnco4)c3c2)c2ccc(C#N)cc21` (single isomer, unassigned) [Example 115, enantiomer 1, 8,8-Dimethyl-5-((3-(oxazol-5-yl)-1H-indazol-5-yl)amino)-5,6,7,8-tetrahydronaphthalene-2-carbonitrile], the IC50 in test [1] is less than 0.1 µM; in test [2] it was 0.1 to 1 µM.

Take `CC1(C)CC[C@H](Nc2ccc3[nH]nc(-c4cnco4)c3c2)c2ccc(C#N)cc21` (single isomer, unassigned) [Example 115, enantiomer 2, 8,8-Dimethyl-5-((3-(oxazol-5-yl)-1H-indazol-5-yl)amino)-5,6,7,8-tetrahydronaphthalene-2-carbonitrile]: the results for the IC50 in test [1] and in test [2] were less than 0.1 µM and 0.1 to 1 µM, respectively.

Consider `CCc1cc(-c2n[nH]c3ccc(N[C@H]4CCCc5cc(C#N)ccc54)cc23)ccn1` (single isomer, unassigned) [Example 116, enantiomer 1, 5-((3-(2-Ethylpyridin-4-yl)-1H-indazol-5-yl)amino)-5,6,7,8-tetrahydronaphthalene-2-carbonitrile], for which the IC50 in test [1] and in test [2] was less than 0.1 µM in each case.

As to `Cc1c(C#N)ccc2c1CC[C@H]2Nc1ccc2[nH]nc(-c3cnoc3)c2c1` (single isomer, unassigned) [Example 118, enantiomer 1, 1-((3-(Isoxazol-4-yl)-1H-indazol-5-yl)amino)-4-methyl-2,3-dihydro-1H-indene-5-carbonitrile], the 50% inhibitory concentration (IC50) in test [1] and in test [2] was less than 0.1 µM each time.

Regarding `N#Cc1ccc2c(c1)CCC[C@H]2Nc1ccc2[nH]nc(-c3cnco3)c2c1` (single isomer, unassigned) [Example 119, enantiomer 1, 5-((3-(Oxazol-5-yl)-1H-indazol-5-yl)amino)-5,6,7,8-tetrahydronaphthalene-2-carbonitrile], the IC50 in test [1] is less than 0.1 µM; in test [2], 0.1 to 1 µM.

For the compound `N#Cc1cnc2c(c1)CCC[C@H]2Nc1ccc2[nH]nc(-c3cnco3)c2c1` (single isomer, unassigned) [Example 120, enantiomer 1, 8-((3-(Oxazol-5-yl)-1H-indazol-5-yl)amino)-5,6,7,8-tetrahydroquinoline-3-carbonitrile], the IC50 in test [1] and in test [2] was less than 0.1 µM each time.

On to `CCc1cc(-c2n[nH]c3ccc(O[C@@H]4CCCc5cc(C#N)cnc54)cc23)ccn1` (single isomer, unassigned) [Example 121, enantiomer 1, 8-((3-(2-Ethylpyridin-4-yl)-1H-indazol-5-yl)oxy)-5,6,7,8-tetrahydroquinoline-3-carbonitrile], for which the IC50 in test [1] and in test [2] was less than 0.1 µM throughout.

For the compound `N#Cc1cc2c(cn1)[C@H](Oc1ccc3[nH]nc(-c4cnco4)c3c1)CCC2` (single isomer, unassigned) [Example 122, enantiomer 1, 8-((3-(Oxazol-5-yl)-1H-indazol-5-yl)oxy)-5,6,7,8-tetrahydroisoquinoline-3-carbonitrile], the IC50 in test [1] was less than 0.1 µM; in test [2], 0.1 to 1 µM.

For the compound `COc1cc(-c2n[nH]c3ccc(O[C@H]4CCCc5cc(C#N)cnc54)cc23)ccn1` (single isomer, unassigned) [Example 123, enantiomer 1, 8-((3-(2-Methoxypyridin-4-yl)-1H-indazol-5-yl)oxy)-5,6,7,8-tetrahydroquinoline-3-carbonitrile], the IC50 in test [1] and in test [2] was less than 0.1 µM each time.

In the case of `N#Cc1ccc2c(c1)CC[C@@H]2Oc1ccc2[nH]nc(C3CC3)c2c1` (single isomer, unassigned) [Example 124, enantiomer 1, 1-((3-Cyclopropyl-1H-indazol-5-yl)oxy)-2,3-dihydro-1H-indene-5-carbonitrile], the IC50 in test [1] is less than 0.1 µM; in test [2], 0.1 to 1 µM.

Turning to `N#Cc1cnc2c(c1)CCC[C@@H]2Nc1ccc2[nH]nc(Br)c2c1` (single isomer, unassigned) [Example 125, enantiomer 1, 8-((3-Bromo-1H-indazol-5-yl)amino)-5,6,7,8-tetrahydroquinoline-3-carbonitrile], the IC50 is less than 0.1 µM in test [1] and 0.1 to 1 µM in test [2].
